From patent US20100143897A1, “Materials and Methods for Assaying for Glyoxylate” (University of South Florida, priority 2005, published 2010)

System: peptidylglycine α-amidating monooxygenase (PAM)
Experiment: PAM treatment of hippurate: benzamide by HPLC, glyoxylate by malate synthase/malate dehydrogenase/MTS/PMS system
Format: biochemical
Conditions: PAM added to hippurate
Experimental: Spectrophotometric enzyme-linked assays for glyoxylate were initiated by the addition of malate synthase and malate dehydrogenase. […] The absorbance at 490 nm was measured after one hour incubation at 37° C. in the dark. The small amount of MTS reduced for the zero glyoxylate control was subtracted from that obtained in the presence of glyoxylate. Hippurate (N-benzoylglycine, C6H5—CO—NH—CH2—COO^−) is a PAM substrate that is oxidatively converted to benzamide and glyoxylate. […] At 10 min intervals over a period of 110 minutes, 45 μl aliquots were removed and added to 10 μl of 6% (v/v) trifluoroacetic acid to terminate the reaction. Percent conversion of hippurate to benzamide was determined at each time interval by reverse-phase HPLC. […] Following ascorbate removal the addition of 100 ul enzyme couple and PMS/MTS brought the assay to a final volume of 1 ml which contained 100 mM TEA-HCl pH 7.8, 10 mM MgCl2, 400 μM acetyl-CoA, 500 μM NAD^+, 6 U/ml malate synthase, 6 U/ml malate dehydrogenase, and 12 units ascorbate oxidase. […] A control for this experiment was performed at each time point, and contained no hippurate.

Compound: O=C(O)CNC(=O)c1ccccc1 [Hippurate, N-benzoylglycine]
- Benzamide Produced (Time 40): 0.58 mM
- Glyoxylate Produced (Time 40): 0.69 mM
- Benzamide Produced (Time 50): 0.70 mM
- Glyoxylate Produced (Time 50): 0.67 mM
- Benzamide Produced (Time 60): 0.80 mM
- Glyoxylate Produced (Time 60): 0.71 mM
- Benzamide Produced (Time 70): 0.90 mM
- Glyoxylate Produced (Time 70): 0.75 mM
- Benzamide Produced (Time 80): 0.98 mM
- Glyoxylate Produced (Time 80): 0.77 mM
- Benzamide Produced (Time 90): 1.1 mM
- Glyoxylate Produced (Time 90): 1.3 mM
- Benzamide Produced (Time 100): 1.2 mM
- Glyoxylate Produced (Time 100): 1.3 mM
- Benzamide Produced (Time 110): 1.3 mM
- Glyoxylate Produced (Time 110): 1.3 mM
